In patent US20070059632A1, “Method of manufacturing a semiconductor device” (priority 2003, published 2007):

How the values were obtained:
Assay type in all cases: physicochemical
[1] = Inhibition of dissolution in alkali developing solution; design: key: A: no change was visually noticed in the state of film; C: the surface was roughened or a part of the film was lost because of dissolution; settings: resist film immersed in 2.38% aqueous solution of TMAH for 3 min
Experimental: (3) Inhibition of Dissolution in Alkali Developing Solution
The resist film formed in the evaluation 2 was immersed in a developing solution (2.38% aqueous solution of TMAH) for 3 min. The results were rated as “A” when no change was visually noticed in the state of film, and “C” when the surface was roughened or a part of the film was lost because of dissolution.

Alkali developability = assay: Alkali developability; design: key: A: the resist film dissolved completely and disappeared; C: the resist film remained not dissolved even in a slight amount; settings: tested on the corresponding polyphenol compound A before introducing the acid-dissociating group; film immersed in 2.38% aqueous TMAH for 10 s
Experimental: (5) Alkali Developability
A polyphenol compound A corresponding to each compound before introducing the acid-dissociating functional group was examined for its developability with an alkali developing solution.
A 10% by weight solution of each polyphenol compound A in PGMEA was spin-coated using a spin coater, to form a resist film of about 0.2 μm thick. After heating on a hot plate for 3 min at 110° C., the resist film was immersed in a 2.38% aqueous solution of TMAH for 10 s. The results were rated as “A” when the resist film dissolved completely and disappeared, and “C” when the resist film remained not dissolved even in a slight amount.

[2] = Solubility of compound in safety solvent; settings: safety solvent (PGMEA or EL) at 23° C.
Experimental: (1) Solubility of Compound in Safety Solvent
Each compound was tested for its solubility in safety solvent (PGMEA or EL) at 23° C. The solubility was rated as “A” when dissolved in an amount of 5% by weight or more, “B” when dissolved in an amount of 0.1% by weight or more but less than 5% by weight, and “C” when not dissolved in an amount of 0.1% by weight or more.

Row | (3) Inhibition of dissolution in developing solution [1] | (5) Alkali developability (Alkali developability) | Structure (SMILES) | (1) Solubility in safety solvent [2]
1 | A | A | O=C1c2ccccc2C(c2ccc(O)cc2)(c2ccc(OC3CCCCO3)cc2)c2ccccc21 (stereo not drawn) [Compound 7-5] | A (dissolved in an amount of 5% by weight or more)
2 | A | A | CCCCOC(=O)Oc1ccc2c(c1)Oc1cc(OC(=O)OCCCC)ccc1C2c1ccc(-c2ccccc2)cc1 [Compound 10-1] | A (dissolved in an amount of 5% by weight or more)
3 | A | A | CC(C)(C)OC(=O)Oc1ccc2c(c1)Oc1cc(O)ccc1C21c2ccccc2-c2ccccc21 [Compound 11-1] | A (dissolved in an amount of 5% by weight or more)
4 | A | A | CCOC(C)Oc1ccc(C2(c3ccc(O)c(-c4ccccc4)c3)Cc3cccc4cccc2c34)cc1-c1ccccc1 (stereo not drawn) [Compound 8-5] | A (dissolved in an amount of 5% by weight or more)
5 | A | A | Oc1ccc2c(c1)Oc1cc(OC3CCCCO3)ccc1C2c1ccc(-c2ccccc2)cc1 (stereo not drawn) [Compound 10-2] | A (dissolved in an amount of 5% by weight or more)
6 | A | A | O=C1c2cccc3cccc(c23)C1(c1ccc(O)cc1)c1ccc(OC2CCCCO2)cc1 (stereo not drawn) [Compound 8-2] | A (dissolved in an amount of 5% by weight or more)
7 | A | A | Oc1ccc(C(c2ccc(OC3CCCCO3)cc2)c2ccc(-c3ccccc3)cc2)cc1 (stereo not drawn) [Compound 6-1] | A (dissolved in an amount of 5% by weight or more)
8 | A | A | CC(C)(C)OC(=O)Oc1ccc(C2(c3ccc(OC(=O)OC(C)(C)C)cc3)C(=O)c3cccc4cccc2c34)cc1 [Compound 8-4] | A (dissolved in an amount of 5% by weight or more)
9 | A | A | Oc1ccc(C2(c3ccc(OC4CCCCO4)cc3)c3ccccc3-c3ccccc32)cc1 (stereo not drawn) [Compound 7-4] | A (dissolved in an amount of 5% by weight or more)
10 | A | A | CC(C)(C)OC(=O)Oc1cc(C2(c3ccc(OC(=O)OC(C)(C)C)c(OC(=O)OC(C)(C)C)c3)c3ccccc3-c3ccccc32)ccc1O [Compound 7-2] | A (dissolved in an amount of 5% by weight or more)
11 | A | A | CC(C)(C)OC(=O)Cc1cc(C2(c3cc(OC(=O)OC(C)(C)C)c(OC(=O)OC(C)(C)C)c(OC(=O)OC(C)(C)C)c3)c3ccccc3-c3ccccc32)cc(OC(=O)OC(C)(C)C)c1OC(=O)OC(C)(C)C [Compound 7-3] | A (dissolved in an amount of 5% by weight or more)
12 | A | A | CC(C)(C)OC(=O)Oc1ccc2c(c1)Oc1cc(OC(=O)OC(C)(C)C)ccc1C21c2ccccc2-c2ccccc21 [Compound 11-2] | B (dissolved in an amount of 0.1% by weight or more but less than 5% by weight)

The remaining lines, values behind:

Row | Structure (SMILES) | (3) Inhibition of dissolution in developing solution [1] | (5) Alkali developability (Alkali developability) | (1) Solubility in safety solvent [2]
13 | Cc1cc(C(C)(c2ccc(OC3CCCCO3)c(C)c2)c2ccc3ccccc3c2)ccc1O (stereo not drawn) [Compound 5-6] | A | A | A (dissolved in an amount of 5% by weight or more)
14 | CCOC(C)Oc1ccc(C(C)(c2ccc(O)c(C3CCCCC3)c2)c2ccc3ccccc3c2)cc1C1CCCCC1 (stereo not drawn) [Compound 5-7] | A | A | A (dissolved in an amount of 5% by weight or more)
15 | Cc1cc(C(C)(c2ccc(OC(C)OC3CCCCC3)c(C)c2)c2ccc3ccccc3c2)ccc1O (stereo not drawn) [Compound 5-5] | A | A | A (dissolved in an amount of 5% by weight or more)
16 | CC(C)(C)OC(=O)Cc1cc(C(C)(c2ccc(OC(=O)OC(C)(C)C)c(OC(=O)OC(C)(C)C)c2)c2ccc3ccccc3c2)ccc1OC(=O)OC(C)(C)C (stereo not drawn) [Compound 5-3] | A | A | A (dissolved in an amount of 5% by weight or more)
17 | Cc1cc(C(C)(c2ccc(OC(=O)OC(C)(C)C)c(C)c2)c2ccc3ccccc3c2)ccc1OC(=O)OC(C)(C)C [Compound 5-1] | A | A | A (dissolved in an amount of 5% by weight or more)
18 | CC(C)(C)OC(=O)Oc1ccc(C(C)(c2ccc(O)cc2)c2ccc3ccccc3c2)cc1 (stereo not drawn) [Compound 5-8] | A | A | A (dissolved in an amount of 5% by weight or more)
